The values that follow come from ChEMBL document CHEMBL3627698, “Selective inhibition of PARP10 using a chemical genetics strategy” (Bioorg Med Chem Lett, 2015).

Each structure is given as a SMILES string.

For orientation: IC50 means the concentration that inhibits the measured activity by half. A higher IC50 goes with lower potency.

The target of test [1] is Protein mono-ADP-ribosyltransferase PARP10 (Homo sapiens, UniProt Q53GL7, L926G). Kind of test: Inhibition of PARP-10 L926G mutant (unknown origin) mediated ADP-ribosylation of SRPK2 by fluorescence analysis using 3 uM SRPK2 as a substrate.
Test [2] concerns the target T1, Protein mono-ADP-ribosyltransferase PARP10 (Homo sapiens, UniProt Q53GL7).
T1 sequence (Q53GL7 whole entry): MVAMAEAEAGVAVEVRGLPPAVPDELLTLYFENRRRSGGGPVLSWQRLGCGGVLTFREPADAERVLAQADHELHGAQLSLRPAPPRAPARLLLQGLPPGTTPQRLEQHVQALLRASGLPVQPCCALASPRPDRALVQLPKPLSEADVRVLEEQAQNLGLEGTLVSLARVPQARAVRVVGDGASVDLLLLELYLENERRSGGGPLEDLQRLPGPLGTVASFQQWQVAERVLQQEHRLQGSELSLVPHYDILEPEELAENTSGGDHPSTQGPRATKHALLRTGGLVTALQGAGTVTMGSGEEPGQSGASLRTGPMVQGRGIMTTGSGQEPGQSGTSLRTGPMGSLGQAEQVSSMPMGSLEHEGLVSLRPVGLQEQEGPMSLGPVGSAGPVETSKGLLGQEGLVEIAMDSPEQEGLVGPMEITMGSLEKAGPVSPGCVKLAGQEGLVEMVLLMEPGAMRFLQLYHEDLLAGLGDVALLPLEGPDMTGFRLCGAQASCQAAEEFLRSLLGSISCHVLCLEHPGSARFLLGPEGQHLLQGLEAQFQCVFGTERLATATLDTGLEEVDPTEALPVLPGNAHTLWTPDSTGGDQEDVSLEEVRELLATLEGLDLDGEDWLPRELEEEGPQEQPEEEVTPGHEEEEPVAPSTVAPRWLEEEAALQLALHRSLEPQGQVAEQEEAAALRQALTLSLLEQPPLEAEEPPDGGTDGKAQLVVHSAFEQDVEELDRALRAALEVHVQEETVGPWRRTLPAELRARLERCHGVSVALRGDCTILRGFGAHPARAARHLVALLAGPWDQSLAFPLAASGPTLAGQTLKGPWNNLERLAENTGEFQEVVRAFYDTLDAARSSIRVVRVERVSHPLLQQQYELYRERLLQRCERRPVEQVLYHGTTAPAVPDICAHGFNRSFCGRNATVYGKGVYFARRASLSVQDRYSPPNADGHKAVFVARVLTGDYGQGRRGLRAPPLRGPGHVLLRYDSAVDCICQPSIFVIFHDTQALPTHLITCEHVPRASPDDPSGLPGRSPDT
Kind of test: Inhibition of PARP-10 (unknown origin) mediated ADP-ribosylation of SRPK2 by fluorescence analysis using 3 uM SRPK2 as a substrate.

The target in test [3] is Poly [ADP-ribose] polymerase 1 (Homo sapiens, UniProt P09874). Briefly: Inhibition of PARP1 (unknown origin) by fluorescence analysis.
Sequence of Poly [ADP-ribose] polymerase 1 (P09874 whole entry): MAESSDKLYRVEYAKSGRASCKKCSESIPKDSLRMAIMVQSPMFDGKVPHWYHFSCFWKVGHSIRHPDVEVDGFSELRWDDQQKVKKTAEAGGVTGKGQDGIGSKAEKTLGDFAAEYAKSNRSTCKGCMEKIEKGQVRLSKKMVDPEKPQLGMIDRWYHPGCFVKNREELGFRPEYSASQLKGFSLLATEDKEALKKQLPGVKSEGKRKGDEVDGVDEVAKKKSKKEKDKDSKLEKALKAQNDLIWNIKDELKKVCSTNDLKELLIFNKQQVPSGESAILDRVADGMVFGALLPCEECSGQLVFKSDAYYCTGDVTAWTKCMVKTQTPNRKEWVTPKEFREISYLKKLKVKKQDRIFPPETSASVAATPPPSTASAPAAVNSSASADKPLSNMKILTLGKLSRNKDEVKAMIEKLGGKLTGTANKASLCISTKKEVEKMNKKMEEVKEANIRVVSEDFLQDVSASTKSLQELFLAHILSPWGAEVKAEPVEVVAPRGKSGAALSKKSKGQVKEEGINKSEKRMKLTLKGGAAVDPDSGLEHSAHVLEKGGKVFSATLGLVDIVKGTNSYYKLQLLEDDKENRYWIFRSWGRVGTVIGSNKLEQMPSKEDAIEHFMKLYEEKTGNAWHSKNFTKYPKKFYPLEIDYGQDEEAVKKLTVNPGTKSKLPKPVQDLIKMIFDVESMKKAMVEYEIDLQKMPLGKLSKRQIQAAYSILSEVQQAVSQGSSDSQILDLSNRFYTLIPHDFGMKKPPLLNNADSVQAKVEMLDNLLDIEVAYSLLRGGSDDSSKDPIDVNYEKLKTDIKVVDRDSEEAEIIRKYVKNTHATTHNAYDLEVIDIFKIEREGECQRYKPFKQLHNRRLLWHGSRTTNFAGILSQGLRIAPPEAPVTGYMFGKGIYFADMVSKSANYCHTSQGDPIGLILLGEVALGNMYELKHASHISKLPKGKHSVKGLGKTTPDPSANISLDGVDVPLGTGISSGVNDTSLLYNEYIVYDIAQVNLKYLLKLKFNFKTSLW

Sequence of Protein mono-ADP-ribosyltransferase PARP10 (Homo sapiens, UniProt Q53GL7, L926G) (Q53GL7 whole entry L926G): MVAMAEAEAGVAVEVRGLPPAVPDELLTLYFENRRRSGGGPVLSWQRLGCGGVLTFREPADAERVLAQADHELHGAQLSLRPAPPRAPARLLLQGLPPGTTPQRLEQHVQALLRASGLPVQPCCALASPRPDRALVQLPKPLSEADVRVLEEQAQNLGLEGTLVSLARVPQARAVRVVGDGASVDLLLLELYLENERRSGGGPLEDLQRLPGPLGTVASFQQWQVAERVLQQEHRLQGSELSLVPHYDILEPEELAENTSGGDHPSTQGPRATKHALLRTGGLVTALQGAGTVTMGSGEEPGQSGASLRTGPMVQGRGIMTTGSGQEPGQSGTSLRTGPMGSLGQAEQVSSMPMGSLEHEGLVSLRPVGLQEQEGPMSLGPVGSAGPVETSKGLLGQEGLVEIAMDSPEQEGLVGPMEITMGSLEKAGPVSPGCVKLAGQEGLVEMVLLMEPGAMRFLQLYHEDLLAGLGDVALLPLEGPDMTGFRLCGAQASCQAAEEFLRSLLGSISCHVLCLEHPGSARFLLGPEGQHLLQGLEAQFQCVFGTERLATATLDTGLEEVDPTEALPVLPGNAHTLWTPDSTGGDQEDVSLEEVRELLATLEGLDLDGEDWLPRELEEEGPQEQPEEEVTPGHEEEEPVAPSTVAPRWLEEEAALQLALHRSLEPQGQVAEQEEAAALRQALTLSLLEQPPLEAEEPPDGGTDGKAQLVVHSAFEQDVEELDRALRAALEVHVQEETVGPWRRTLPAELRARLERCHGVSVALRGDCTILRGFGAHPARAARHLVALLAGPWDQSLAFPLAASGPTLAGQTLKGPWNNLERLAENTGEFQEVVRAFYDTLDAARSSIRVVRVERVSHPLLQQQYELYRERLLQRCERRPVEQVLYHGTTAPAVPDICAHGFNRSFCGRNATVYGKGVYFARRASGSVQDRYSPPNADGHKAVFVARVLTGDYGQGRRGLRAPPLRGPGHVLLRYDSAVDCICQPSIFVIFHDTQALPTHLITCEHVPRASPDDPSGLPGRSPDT

As for `O=C1NCCc2ccc(C(F)(F)F)cc21`, the values for the 50% inhibitory concentration (IC50) in test [1], in test [2] and in test [3] were 65.5 µM, more than 100 µM and more than 100 µM, respectively.
On to `O=C1NCCc2ccc(O)cc21`, for which the IC50 in test [1] is more than 30 µM.
In the case of `Cc1ccc2c(c1)C(=O)NCC2`, the half-inhibitory concentration (IC50) in test [1] is 112 µM; in test [2], more than 100 µM; in test [3], more than 100 µM.
On to `O=C1NCCc2ccc(Br)cc21`, for which the IC50 is 8.6 µM in test [1], more than 100 µM in test [2] and more than 100 µM in test [3].
On to `O=C1NCCc2ccc(Cl)cc21`, for which the concentration for half-maximal inhibition (IC50) in test [1] was 16.2 µM; in test [2] it was more than 100 µM; in test [3], 100 µM.
For the molecule `COc1ccc2c(c1)C(=O)NCC2`, the values for the IC50 in test [1], in test [2] and in test [3] were 172 µM, more than 100 µM and more than 100 µM, respectively.
